How the values were obtained:
[1] = biological target: T1, β-gal I (Bifidobacterium breve, UniProt D4BLG2); assay: oNPG hydrolysis, o-nitrophenol release at […] nm, nonlinear regression; type: biochemical; conditions: competitive vs oNPG; 50 mM sodium phosphate pH 6.5, 30°C
T1 construct: gene BIFBRE_02894; full length, C-terminal His6 tag kept (pET-21a), E. coli T7 Express with GroEL/GroES, IMAC; calculated 116,127 Da; homodimer 220 kDa; GH2; N-terminus from primer MQGKAKT, C-terminus before tag DVTLELI
T1 sequence (D4BLG2 entry or part of it): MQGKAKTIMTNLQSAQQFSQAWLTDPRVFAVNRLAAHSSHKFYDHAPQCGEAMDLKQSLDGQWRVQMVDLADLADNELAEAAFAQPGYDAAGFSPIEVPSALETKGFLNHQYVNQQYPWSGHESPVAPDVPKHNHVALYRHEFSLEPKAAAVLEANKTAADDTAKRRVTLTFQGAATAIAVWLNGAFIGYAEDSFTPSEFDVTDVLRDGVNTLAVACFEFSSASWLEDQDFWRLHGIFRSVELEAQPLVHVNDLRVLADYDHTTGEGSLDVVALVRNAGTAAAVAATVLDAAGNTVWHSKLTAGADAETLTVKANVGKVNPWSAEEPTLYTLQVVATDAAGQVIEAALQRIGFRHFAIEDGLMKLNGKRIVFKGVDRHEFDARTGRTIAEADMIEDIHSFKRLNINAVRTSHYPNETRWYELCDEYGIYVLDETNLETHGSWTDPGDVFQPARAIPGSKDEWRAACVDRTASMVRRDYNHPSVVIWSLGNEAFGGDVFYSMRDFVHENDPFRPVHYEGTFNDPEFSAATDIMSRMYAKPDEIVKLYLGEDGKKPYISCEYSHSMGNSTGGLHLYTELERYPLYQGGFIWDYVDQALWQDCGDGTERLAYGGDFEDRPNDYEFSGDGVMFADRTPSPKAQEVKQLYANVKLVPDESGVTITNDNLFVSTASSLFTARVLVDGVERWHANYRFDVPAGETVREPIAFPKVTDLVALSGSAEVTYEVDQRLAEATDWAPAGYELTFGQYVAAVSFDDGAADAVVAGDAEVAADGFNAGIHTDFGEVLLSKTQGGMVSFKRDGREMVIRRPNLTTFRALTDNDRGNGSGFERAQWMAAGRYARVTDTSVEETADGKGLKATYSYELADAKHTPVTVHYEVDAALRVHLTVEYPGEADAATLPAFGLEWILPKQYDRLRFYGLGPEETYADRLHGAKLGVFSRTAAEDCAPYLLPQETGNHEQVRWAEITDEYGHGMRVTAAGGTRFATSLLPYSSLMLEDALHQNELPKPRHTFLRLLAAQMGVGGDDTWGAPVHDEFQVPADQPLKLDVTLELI

[2] = biological target: T2, β-gal II (Bifidobacterium breve, UniProt D4BR09); assay: as above; type: biochemical; conditions: competitive vs oNPG; 50 mM sodium phosphate pH 6.5, 30°C
T2 construct: gene BIFBRE_04539; full length, C-terminal His6 tag kept (pET-21a), E. coli T7 Express with GroEL/GroES, IMAC; calculated 116,594 Da; homodimer 211 kDa; GH2; N-terminus from primer MNTTDDQ, C-terminus before tag DVNLELI
T2 sequence (D4BR09 entry or part of it): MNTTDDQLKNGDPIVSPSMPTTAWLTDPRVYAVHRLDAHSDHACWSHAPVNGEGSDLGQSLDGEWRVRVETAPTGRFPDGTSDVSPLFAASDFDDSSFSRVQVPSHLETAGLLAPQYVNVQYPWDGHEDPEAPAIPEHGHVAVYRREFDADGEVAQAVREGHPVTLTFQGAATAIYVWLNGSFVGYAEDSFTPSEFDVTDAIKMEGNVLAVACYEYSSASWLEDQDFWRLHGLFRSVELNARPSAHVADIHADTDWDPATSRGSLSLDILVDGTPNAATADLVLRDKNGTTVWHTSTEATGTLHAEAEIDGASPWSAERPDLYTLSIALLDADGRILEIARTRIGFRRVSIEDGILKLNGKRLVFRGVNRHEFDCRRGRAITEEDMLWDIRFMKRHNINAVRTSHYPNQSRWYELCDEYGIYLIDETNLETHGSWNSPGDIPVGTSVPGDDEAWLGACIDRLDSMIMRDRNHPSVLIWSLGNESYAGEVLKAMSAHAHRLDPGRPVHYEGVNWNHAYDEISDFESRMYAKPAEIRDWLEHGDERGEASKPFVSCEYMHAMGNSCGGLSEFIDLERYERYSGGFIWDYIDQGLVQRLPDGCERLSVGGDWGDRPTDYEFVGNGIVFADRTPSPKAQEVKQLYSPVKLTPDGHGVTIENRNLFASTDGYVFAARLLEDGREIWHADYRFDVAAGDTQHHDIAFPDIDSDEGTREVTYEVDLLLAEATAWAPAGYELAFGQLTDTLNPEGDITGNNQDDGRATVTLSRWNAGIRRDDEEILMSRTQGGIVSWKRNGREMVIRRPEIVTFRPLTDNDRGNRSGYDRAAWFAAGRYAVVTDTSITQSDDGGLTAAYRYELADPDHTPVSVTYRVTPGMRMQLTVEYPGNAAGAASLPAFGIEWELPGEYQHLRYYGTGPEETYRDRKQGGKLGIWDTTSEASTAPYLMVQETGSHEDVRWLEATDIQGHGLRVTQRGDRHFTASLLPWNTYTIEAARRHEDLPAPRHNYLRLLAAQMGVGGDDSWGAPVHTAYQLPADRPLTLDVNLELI

SMILES	Ki [1] [mM]	Ki [2] [mM]
OC[C@H]1OC(O)[C@H](O)[C@@H](O)[C@H]1O (stereo partly drawn) [D-galactose]	15 ± 3	34 ± 5
OC[C@H]1OC(O)[C@H](O)[C@@H](O)[C@@H]1O (stereo partly drawn) [D-glucose]		37 ± 4

Reference: paper PMC4121272, “Two β-Galactosidases from the Human Isolate Bifidobacterium breve DSM 20213: Molecular Cloning and Expression, Biochemical Characterization and Synthesis of Galacto-Oligosaccharides” (PLoS ONE, 2014)
